Experimental data published in patent US9504702B2, “Methods of inhibition of protein fucosylation in vivo using fucose analogs” (Seattle Genetics, Inc., priority 2010, dated 2016).
Entries after “also recorded” stand apart in the source; their conditions may differ.

Tests used:
[1] = tested on: LP-1 cells (1,6-fucosylation on the antibody); experiment: Fucosylation status of LP-1-generated IgG by reducing PLRP-MS; type: cell-based, human; settings: 100 μM, 5 days, in words
Description: To further define the results of the AOL dot blot, samples of the IgGs produced by cells treated with the following fucose analogs (that gave moderate to strong decreases in the dot blot AOL signal) were isolated and examined by reducing PLRP-MS to verify the fucosylation status using the MW of the heavy chain: alkynyl fucose peracetate; 5-vinylfucose tetraaceate; 5-methylketofucose tetraacetate; 6-bromofucose tetraacetate; 6-fluorofucose tetraacetate; 5-ethylfucose tetraacetate; 5-epoxyfucose tetraacetate; 6′6-difluorofucose tetraacetate; 6-keto-6-ethyl fucose tetraacetate; and 2-fluorofucose peracetate.
40 mL samples of LP-1 cells (250,000 cells/mL) were treated with 100 μM of a fucose analog for 5 days as described above, and the IgGs were purified as described using protein A resin. The yields were estimated by UV spectroscopy assuming an extinction coefficient of 1.4 AU/(mg/mL). Seven of the ten compounds yielded enough IgG to perform the analysis (use of SGD-2067, SGD-1964, and SGD-2020 yielded <10 μg of IgG, likely due to toxicity of the analogs to the cells). The remaining IgGs were reduced with 10 mM DTT at 37° C. for 15 min and were separated on PLRP followed by MS analysis using a QTOF mass spectrometer. The resulting heavy chain peaks were examined and compared to the IgG generated by untreated cells.
The mass spectrometry signals were evaluated by comparing the peak height of the heavy chain versus heavy chain minus fucose and heavy chain minus fucose plus the mass of the fucose analog (which would arise if there was incorporation of the analog into the antibody carbohydrate).

[2] = tested on: antibody core fucosylation (antibodies that did not bind to KLH, recovered from protein A column); type: in vivo; settings: 100 mM in drinking water for 14 days; non-KLH antibodies; dot blot; untreated 81%
Method: Female BALB/c mice were immunized with Keyhole Limpet Hemocyanin (KLH) 30-60 days prior to starting this study. For the first study, mice were dosed ip with 150 mg/kg of alkynyl fucose (SGD-1887), alkynyl fucose peracetate (SGD-1890), 2-fluorofucose (SGD-2083), or 2-fluorofucose triacetate (SGD-2084) daily for 7 days or were untreated. On day 2, mice were also boosted with KLH. On the day after the last ip dose, mice were terminally bled and serum obtained. For the second study, mice were given 100 mM of 2-fluorofucose (SGD-2083) in their drinking water or given untreated water for 7 days, boosted with KLH, and continued with 100 mM 2-fluorofucose containing drinking water or untreated water for 7 more days before being terminally bled. Serum was then obtained. No mice died in either study. For both studies, serum was passed over a commercial anti-KLH affinity column to obtain KLH-specific polyclonal antibodies. […]
Dot blots: 0.5 μg each of antibodies from untreated and treated animals, as well as standards of antibody cAC10 having known amounts of core fucosylation (0 to 100% fucose), were blotted onto a nitrocellulose membrane. […] Gel loading (visible) and fucose signals (bioluminescence) were measured with an Alpha Innotech camera and quantitated with the machine software.

[3] = tested on: LS174T, PC-3, HL-60, Ramos, and Caki-1 cell lines; experiment: Cell surface fucosylation of human-derived cell lines cultured with fucose analog, FACS (Example 7, Study 1); type: cell-based; settings: 100 μM, two weeks
Method: Human-derived cell lines were evaluated for their susceptibility to the fucose analog 2-fluorofucose in vitro. The cells lines were: LS174T colon adenocarcinoma, […], HL-60 acute mylogenous leukemia, Ramos Burkitt lymphoma, and Caki-1 renal cell carcinoma. The cell lines were cultured in the presence of 100 μM 2-fluorofucose (SGD-2083) in growth media, 100 μM alkynylfucose (SGD-1887) in growth media, or control growth media (without a fucose analog) for two weeks. The growth media were MEM Eagle with 10% FBS (LS174T), 50:50 F12 and RPMI with 10% FBS (PC-3), RPMI with 10% FBS (HL-60), IMDM with 10% FBS (Ramos), and McCoy with 10% FBS ([…]). The cells were evaluated for cell surface fucosylation by FACS using antibody cBR96 to detect LewisY, antibody SSEA-1 to detect LewisX, P-selectin ligand to detect P-selectin, and AOL lectin to detect the general level of fucosylation.

[4] = tested on: core antibody fucosylation (endogenous antibodies); experiment: Antibody fucosylation in vivo following oral administration, dose study (Example 3), dot blot; design: species or system Female BALC/c mice
Method: In this study, the effects of oral administration of the fucose analog 2-fluorofucose (SGD-2083) were further examined. Female BALC/c mice were offered […] 2-fluorofucose in their drinking water for 14 days. Mice were immunized with TiterMAX Classic and offered 1, 10 and 100 mM 2-fluorofucose in their drinking water for an additional 7 days. Mice were then terminally bled and serum obtained. Endogenous antibodies were purified by passing the serum over a protein A column
The collected antibodies were evaluated for fucosylation levels by dot blot as follows. Antibodies from untreated and treated animals (0.5 μg each), as well as standards of cAC10 with 0 to 100% fucose (only study 1), were blotted onto a nitrocellulose membrane. The proteins levels were visualized with Ponceau S. The blot was probed with biotinylated AOL lectin and developed with streptavidin HRP and ECL (as described above). Gel loading (visible) and fucose signals (bioluminescence) were measured with an Alpha Innotech camera and quantitated with the machine software.

[5] = tested on: LS174T colon adenocarcinoma; experiment: Xenograft of pre-treated LS174T cells (Example 7, Study 2); type: in vivo, female nude mice; settings: 20 mM in drinking water
Method: To further evaluate the activity of these fucose analogs, further studies were performed in vivo using tumor cells that had been pre-treated by culturing in the presence of a fucose analog, or using untreated tumor cells. Tumor cells were implanted into 10 mice per group as follows. For the LS174T, PC-3, and Caki-1 cell lines, 5×10^5 cells in 25% Matrigel were implanted subcutaneously into female nude mice. For HL-60 and Ramos cell lines, 5×10^6 cells were implanted subcutaneously into female SCID mice. For mice implanted with untreated tumor cells, mice were provided regular drinking water. For mice implanted with tumor cells pre-treated with 2-fluorofucose (SGD-2083), the mice were provided drinking water supplemented with 20 mM 2-fluorofucose (SGD-2083). For mice implanted with tumor cells pre-treated with alkylnyl fucose (SGD-1887), the mice were provided with regular drinking water.
After 3 weeks of receiving 2-fluorofucose-containing drinking water, mice were returned to regular drinking water, except for mice with Caki-1 tumors. The latter mice were returned to regular drinking water for one week. After the week of receiving regular water, mice were randomized to two groups of 5 each to receive drinking water supplemented with 20 mM 2-fluorofucose or regular drinking water. Mice were sacrificed when tumors reached about 1000 mm^3.

| SMILES | PLRP/MS (inhibition or incorporation) [1] | fucosylation levels (average, treated animals) [2] | inhibition of protein fucosylation, compared with alkynyl fucose (SGD-1887) [3] | antibody fucosylation levels ([4]; 1 mM in drinking water) | fucosylation levels of antibodies ([4]; 1, 10 and 100 mM in drinking water, 21 days) | antibody fucosylation levels ([4]; intermediate concentration (10 mM) in drinking water, compared with 100 mM) | tumor growth [5] |
| --- | --- | --- | --- | --- | --- | --- | --- |
| C#CC(OC(C)=O)[C@@H](OC(C)=O)[C@@H](OC(C)=O)[C@@H](C=O)OC(C)=O (stereo partly shown) [SGD-1890, 5-ethynylarabinose tetraacetate] | complete inhibition; also recorded: Full inhibitor | – | – | – | – | – | – |
| C[C@H](O)[C@@H](O)[C@@H](O)[C@H](F)C=O [SGD-2083, 2-fluoro-2-deoxy fucose] | – | 7% | generally a better inhibitor | highest in the untreated control and 1 mM 2-fluorofucose groups | dose-dependent decrease | nearly as depleted of fucose as the high concentration | tumor growth inhibition in vivo was seen |
